Series [1] has as its system Rat neonatal cardiomyocytes. Description: Hydrogen peroxide treatment, Trypan blue viability (monolayer). Conditions: 500 μM peptide 1.5 hr, 100 μM H2O2 10 min, FIG. 5A. In kind it is cell-based. The procedure: Rat neonatal cardiomyocytes were incubated for 1.5 hr with 500 μM QHREDGS, scrambled (scram) QHREDGS peptide (DGQESHR), or PBS control (PBS); 200 nM ang 1 or its matched buffer control [0.1% bovine serum albumin (BSA) in PBS] in the culture medium. The culture medium consisted of Dulbecco's Modified Eagle's Medium (DMEM) with 0.5% BSA and cytosine-β-D-arabinofuranoside (anti-proliferative). Reactive oxygen species were increased by addition of 100 μM H2O2 for 10 min (37° C., 5% CO2) (N=6/group). Cell viability was measured using a Trypan blue stain. Trypan blue dye is impermeable to viable cells, but enters dead/damaged cells with impaired membrane integrity, staining cells blue.

For another series, the system named is human iPS cells BJ1D. Description: iPS cell dose-response, CFDA-Live/PI-Dead live cell count. The class given is cell-based. The following applies: 50 μM soluble peptide, passage 5, vs PBS, p=0.028, FIG. 10. The procedure:
The human iPS cells (BJ1D and 0901B) were obtained from the Ontario iPSC Facility and used following the hiPS cell research guidelines of the University of Toronto as described by Hotta et al. Nat. Protoc. 4, 1828-1844 (2009)), unless specified otherwise. Cells were cultured on a feeder layer of MEF cells (Mount Sinai Hospital Toronto, inactivated with 10 μg/ml mitomycin C and seeded at 1.8×10^5 per 3.5 cm dish). For single cell cultures, hiPS cell colonies were dissociated in 0.25% Trypsin-EDTA (Invitrogen) for 5 min, followed by trituration with a pipette. To ensure a single-cell suspension, the dissociated cells were passed through a 40 μm cell strainer (BD Falcon) and seeded onto MEF plates at 10 cells/ml, 10 cm plates. Cells were allowed to grow for 7 days and the total number of colonies was counted. […] Cells were analyzed after 5 passages in continuous treatment with 50 μM QHREDGS, 50 μM DGQESHR, or PBS, unless specified otherwise.
Human iPS cells were treated for 5 passages and stained for CFDA-Live/PI-Dead as described in Rask et al. J. Biomed. […] Live cells were counted using the cell counter plug in for ImageJ Immunohistochemistry was performed as described above (Rask et al., ibid). […]
To determine the optimal concentration of QHREDGS for iPSC expansion, a dose-response experiment was performed. […] Live cells were counted using the cell counter plug in for ImageJ.

Series [2] has as its system Human ESC-derived cardiac cells (Hes2). Description: Total cell number of monolayer human ESC-derived cardiac cells. The class given is cell-based. Conditions: 50 μM, 10 days, vs PBS control and DGQESHR. Here is the method:
(§1) Human ESC-derived cardiac cell culture, were derived from Day 20 EBs, consisting of greater than 50% cardiomyocytes obtained by directed differentiation of human ES (Hes2) cells as described by Yang et al. (Nature 453, 524-528 (2008)). EBs were dissociated using Collagenase I (Invitrogen) for 2 hrs and 0.05% Trypsin-EDTA (Invitrogen) for 5 min and plated at 40000 cells/cm^2 onto 0.2% gelatin-coated plates in Stempro 34 medium supplemented with VEGF (10 ng/ml) and DKK1 (150 ng/ml). Cells were cultured in the presence of 50 μM QHREDGS, 50 μM DGQESHR (Biomatik) or PBS until they formed a beating monolayer, around 10 days. Peptides were replenished during media changes every 3 days. 100 μM H2O2 (Sigma, dissolved in PBS) was added to culture media for 10 min, washed, and analyzed immediately for CFDA-Live/PI-Dead. Live cells were counted using the cell counter plug in for ImageJ. 0.5 μM or 2.5 μM taxol (Sigma, dissolved in DMSO) was added to culture media for 24 hrs, and the extent of apoptosis was analyzed immediately using the Apo-ONE Homogeneous Caspase Assay (Promega), or TUNEL assay (Roche) as described above. A PBS control was used for H2O2 and DMSO control was used for taxol.

Series [3] shares this test system. Put plainly: H2O2 exposure, CFDA-Live/PI-Dead of human ESC-derived cardiac cells. In kind it is cell-based. Conditions: 50 μM, 100 μM H2O2 10 min, FIG. 19. Here is the method: as §1
Series [4] has the same test system. Description: TUNEL assay with cTnT co-localization of human ESC-derived cardiac cells. In kind it is cell-based. Conditions: 50 μM, FIG. 21. Here is the method: as §1
In series [5] the test system is neonatal rat CMs (heart cells). Description: Preliminary 3D cell encapsulation studies in hydrogels. The class given is cell-based, rat (Sprague-Dawley). Conditions: encapsulated, 1 to 4 days of 3D culture. Here is the method: The lyophilized form of the peptide-modified Az-chitosan was dissolved in sterile 0.9% saline at 12 mg/mL. CMs (2.5×10^6) were suspended in 15 μL of CM culture media with 30% serum for 15 minutes on ice. These cells were then suspended in 35 μL of the hydrogel and crosslinked in the transwell inserts of the 96 well plates. The cells were cultivated in the CM culture medium with 10% FBS for up to 4 days.

The test system of series [6] is Lewis rats. The following applies: rat, in vivo, sc.
Description: (§2) Cardiac constructs were made by encapsulation of neonatal Lewis rat cardiomyocytes in Az-chitosan-QHREDGS or Az-chitosan-RGDS. A total of 2×10^6 cardiomyocytes were resuspended in 15 μL of ice cold cardiomyocytes medium with 30% FBS for at least 10 min. These cells were then encapsulated in 100 μL of the hydrogel in transwell plates and constructs (2 mm thick and 6 mm in diameter) were produced. A total of 8 samples were made for each type of hydrogel, and 4 from each group were implanted, while the other 4 were retained as in vitro controls. Samples were cultured at 37° C. for 5 d before they were implanted in vivo.
(§3) Cardiac constructs described above were inserted subcutaneously into the abdomen of Lewis rats. Four samples were implanted for each type of hydrogel. […] Quantification of total SMA and Factor VIII was performed using ImageScope v10 (Aperio Technologies) and mean intensities were averaged for six fields for each sample and normalized to total area. […] Apoptosis was assessed using a TUNEL assay (Roche Applied Science) following the manufacturer's standard protocol.
Series [7] has as its system Lewis rats. Description: Subcutaneous implantation of cardiomyocyte/hydrogel constructs and histological assessment.
Description: as §2, §3
The mark [8] stands for this setting: 7 days after subcutaneous implantation.

No end group written: not given here.

As for QHREDGS (angiopoietin 1 peptide), the “cardiomyocyte viability after exposure to H2O2” value in series [1] is “maintain cardiomyocyte viability”. In addition, the “number of viable human iPS cells” value in the series with human iPS cells BJ1D is on record as “significant increase”. Besides, the “increase in number of cardiac cells/well” value in series [2] was “greater than 2 fold”. Further, the “viability of cardiac cells (% Live-CFDA/Dead-PI)” value in series [3] is listed as “enhanced viability”. Further, the “reduction of basal apoptosis in cardiomyocytes (TUNEL/cTnT)” value in series [4] is reported as “greater than 10 fold”.
On to “Az-chitosan-QHREDGS: QHREDGS peptide covalently conjugated to Az-chitosan by EDC chemistry (also: covalently conjugated to Az-chitosan by EDC chemistry, site not given here)”, for which the “heart cell survival and elongation in 3D hydrogel” value in series [5] is listed as “heart cell elongation”. Besides, in the series with Lewis rats [6], the “animal health / external signs of inflammation” value was “no external signs of inflammation”. Also, in the series with Lewis rats [7] (setting [8]), the “cardiomyocytes in implant (sarcomeric α-actinin, troponin I staining)” value is given as “larger areas of cardiomyocytes” and the “percentage of apoptotic cells (TUNEL)” value was around 1.5%. In addition, the “apoptotic cardiomyocytes (troponin I and TUNEL double staining)” value in the series on Lewis rats [7] (7 days after subcutaneous implantation, vs RGDS modified hydrogel) is on record as “fewer apoptotic cardiomyocytes”. The “biomaterial degradation and cell infiltration (H&E)” value in the series with Lewis rats [7] (day 7 after subcutaneous implantation) is recorded as “less cell infiltration”. Further, the “percentage of SMA+ myofibroblasts” value in the series on Lewis rats [7] (vs Az-chitosan-RGDS hydrogel) is listed as “significantly higher percentage of SMA+ myofibroblasts”.
